Assay results taken from patent US8741934B2, “Inhibitors of ion channels” (Pfizer Limited, priority 2007, dated 2014).
pIC50: −log10 of the molar value.

Molecular target: T1, hSCN3A sodium channels (Homo sapiens, UniProt Q9NY46)
T1 construct: expressed in transfected cells
Assay: hSCN3A electrophysiology, whole-cell patch-clamp or PatchXpress 7000, estimated IC-50 (Table B)
Format: cell-based
Conditions: estimated IC-50; hSCN3A cells, whole-cell patch-clamp or PatchXpress 7000; read-out: SCN3A EIC-50
Protocol: Human Embryonic Kidney (HEK) cells were transfected with an hSCN3A construct using lipofectamine reagent (Invitrogen), using standard techniques. […] Clones were screened for expression using the whole-cell voltage-clamp technique.
HEK cells stably transfected with hSCN3A were maintained in DMEM medium supplemented with 10% heat-inactivated fetal bovine serum and 400 μg/ml G418 sulfate in an incubator at 37° C. with a humidified atmosphere of 10% CO2. […] For electrophysiological studies, cells were removed from the culture flask by brief trypsinization and replated at low density onto glass cover slips. Cells were typically used for electrophysiological experiments within 24 to 72 h after plating.
All recordings were made at room temperature (22-24° C.) using AXOPATCH 200B amplifiers and PCLAMP software (Axon Instruments, Burlingame, Calif.) or PatchXpress 7000 hardware and associated software (Axon Instruments, Burlingame, Calif.).
Current records were acquired at 20 to 50 KHz and filtered at 5 to 10 KHz.
HEK cells stably transfected with hSCN3A were viewed under Hoffman contrast optics and placed in front of an array of flow pipes emitting either control or compound-containing extracellular solutions. All compounds were dissolved in dimethyl sulfoxide to make 10 mM stock solutions, which were then diluted into extracellular solution to attain the final concentrations desired.
The voltage-dependence of inactivation was determined by applying a series of depolarizing prepulses (8 sec long in 10 mV increments) from a negative holding potential. The voltage was then immediately stepped to 0 mV to assess the magnitude of the sodium current. Currents elicited at 0 mV were plotted as a function of prepulse potential to allow estimation of the voltage midpoint of inactivation (V1/2). Cells were then voltage clamped at the empirically determined V1/2.
Compounds were tested for their ability to inhibit hSCN3A sodium channels by activating the channel with a 20 msec voltage step to 0 mV following an 8 second conditioning prepulse to the empirically determined V1/2 (Table B). Compound effect (% inhibition) was determined by difference in current amplitude before and after application of test compounds. […] Inhibition values <20% and >80% were excluded from the calculation.
In some cases electrophysiological assays were conducted with PatchXpress 7000 hardware and associated software (Molecular Devices Corp) (Table B). All assay buffers and solutions were identical to those used in conventional whole-cell voltage clamp experiments described above. hSCN3A cells were grown as above to 50%-80% confluency and harvested by trypsinization. Trypsinized cells were washed and resuspended in extracellular buffer at a concentration of 1×10^6 cells/ml. The onboard liquid handling facility of the PatchXpress was used for dispensing cells and application of test compounds. Determination of the voltage midpoint of inactivation was as described for conventional whole-cell recordings. Cells were then voltage-clamped to the empirically determined V1/2 and current was activated by a 20 msec voltage step to 0 mV.

T1 sequence (Q9NY46 whole entry): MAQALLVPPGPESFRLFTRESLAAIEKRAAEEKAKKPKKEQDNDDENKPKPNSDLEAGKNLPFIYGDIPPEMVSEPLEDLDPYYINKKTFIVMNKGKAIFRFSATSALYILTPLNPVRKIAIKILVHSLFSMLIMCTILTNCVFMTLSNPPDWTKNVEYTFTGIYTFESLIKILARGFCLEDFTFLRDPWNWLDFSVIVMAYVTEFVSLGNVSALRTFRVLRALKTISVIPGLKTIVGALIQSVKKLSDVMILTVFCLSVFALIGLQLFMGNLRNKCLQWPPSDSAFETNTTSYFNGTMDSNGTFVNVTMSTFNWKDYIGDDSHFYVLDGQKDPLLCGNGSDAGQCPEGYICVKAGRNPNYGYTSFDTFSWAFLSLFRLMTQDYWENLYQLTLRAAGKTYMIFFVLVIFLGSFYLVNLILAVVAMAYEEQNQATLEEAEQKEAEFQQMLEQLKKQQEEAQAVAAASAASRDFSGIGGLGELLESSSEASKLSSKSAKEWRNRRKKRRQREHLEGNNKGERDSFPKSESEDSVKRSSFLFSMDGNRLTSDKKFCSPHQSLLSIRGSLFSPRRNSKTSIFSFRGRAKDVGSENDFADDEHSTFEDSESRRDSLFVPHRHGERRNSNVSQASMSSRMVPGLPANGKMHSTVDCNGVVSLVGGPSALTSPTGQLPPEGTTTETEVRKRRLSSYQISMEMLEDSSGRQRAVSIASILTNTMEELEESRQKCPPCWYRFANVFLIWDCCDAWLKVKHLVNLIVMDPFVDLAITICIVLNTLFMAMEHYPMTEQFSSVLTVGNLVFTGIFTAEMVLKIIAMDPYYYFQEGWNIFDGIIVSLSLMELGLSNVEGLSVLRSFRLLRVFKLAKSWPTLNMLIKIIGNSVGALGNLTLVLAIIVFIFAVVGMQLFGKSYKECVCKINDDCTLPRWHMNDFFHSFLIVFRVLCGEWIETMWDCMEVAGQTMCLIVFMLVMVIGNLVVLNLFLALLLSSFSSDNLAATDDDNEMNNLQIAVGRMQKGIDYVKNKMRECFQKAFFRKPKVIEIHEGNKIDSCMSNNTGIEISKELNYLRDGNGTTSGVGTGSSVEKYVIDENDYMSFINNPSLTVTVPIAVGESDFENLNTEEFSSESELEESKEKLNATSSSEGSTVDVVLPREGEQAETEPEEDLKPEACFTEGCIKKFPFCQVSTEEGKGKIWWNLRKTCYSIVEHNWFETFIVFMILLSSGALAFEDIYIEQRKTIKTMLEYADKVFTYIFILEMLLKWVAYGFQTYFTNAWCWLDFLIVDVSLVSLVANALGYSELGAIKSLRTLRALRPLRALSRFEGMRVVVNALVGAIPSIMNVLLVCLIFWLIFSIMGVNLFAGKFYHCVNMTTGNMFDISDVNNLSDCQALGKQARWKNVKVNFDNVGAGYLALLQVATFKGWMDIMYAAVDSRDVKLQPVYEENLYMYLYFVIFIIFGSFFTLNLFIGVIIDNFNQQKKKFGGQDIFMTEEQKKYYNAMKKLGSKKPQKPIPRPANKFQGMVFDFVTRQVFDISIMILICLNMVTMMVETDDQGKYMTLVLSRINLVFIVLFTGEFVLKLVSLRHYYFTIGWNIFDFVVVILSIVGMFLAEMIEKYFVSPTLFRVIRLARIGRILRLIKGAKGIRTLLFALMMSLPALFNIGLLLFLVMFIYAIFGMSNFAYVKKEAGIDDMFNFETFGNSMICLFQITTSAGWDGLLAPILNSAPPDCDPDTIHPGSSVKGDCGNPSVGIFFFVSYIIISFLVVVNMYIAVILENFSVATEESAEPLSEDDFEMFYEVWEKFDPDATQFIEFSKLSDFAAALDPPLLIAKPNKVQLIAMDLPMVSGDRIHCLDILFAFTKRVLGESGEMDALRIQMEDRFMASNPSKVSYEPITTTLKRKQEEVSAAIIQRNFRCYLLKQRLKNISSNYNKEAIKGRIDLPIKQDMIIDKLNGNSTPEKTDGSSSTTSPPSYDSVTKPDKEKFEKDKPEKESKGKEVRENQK

Structure (SMILES) | pIC50
O=C(NCc1ccc(Cl)c(F)c1)c1ccc(S(=O)(=O)Nc2nccs2)c(F)c1 [Example 295, N-(4-chloro-3-fluorobenzyl)-3-fluoro-4-[(1,3-thiazol-2-ylamino)sulfonyl]benzamide] | 6.66
O=C(NCc1cccc(OC(F)(F)F)c1)c1ccc(S(=O)(=O)Nc2nccs2)cc1 [Example 73, 4-[(1,3-Thiazol-2-ylamino)sulfonyl]-N-[3-(trifluoromethoxy)benzyl]benzamide] | 6.74
O=C(NCc1ccc(OC(F)(F)F)c(F)c1)c1ccc(S(=O)(=O)Nc2ncc(Cl)s2)cc1F [Example 359, 4-{[(5-Chloro-1,3-thiazol-2-yl)amino]sulfonyl}-2-fluoro-N-[3-fluoro-4-(trifluoromethoxy)benzyl]benzamide] | 6.77
O=C(NCCc1ccccc1)c1ccc(S(=O)(=O)Nc2nccs2)cc1 [Example 163, N-(2-phenylethyl)-4-[(1,3-thiazol-2-ylamino)sulfonyl]benzamide] | 5.30
Cc1cc(Cl)ccc1CNC(=O)c1ccc(S(=O)(=O)Nc2nccs2)cc1 [Example 414, N-(4-chloro-2-methylbenzyl)-4-[(1,3-thiazol-2-ylamino)sulfonyl] benzamide] | 6.62
O=C(NCc1cc(C(F)(F)F)ccc1Cl)c1ccc(S(=O)(=O)Nc2nccs2)cc1 [Example 120, N-[2-chloro-5-(trifluoromethyl)benzyl]-4-[(1,3-thiazol-2-ylamino)sulfonyl]benzamide] | 6.30
O=C(NCc1cc(Cl)ccc1Cl)c1ccc(S(=O)(=O)Nc2nccs2)cc1 [Example 126, N-(2,5-dichlorobenzyl)-4-[(1,3-thiazol-2-ylamino)sulfonyl]benzamide] | 6.54
O=C(NCc1cccc(OC(F)(F)F)c1)c1ccc(S(=O)(=O)Nc2ncc(Cl)s2)cc1 [Example 29, 4-{[(5-Chloro-1,3-thiazol-2-yl)amino]sulfonyl}-N-[3-(trifluoromethoxy)benzyl]benzamide] | 6.77
Cc1ccccc1CNC(=O)c1ccc(S(=O)(=O)Nc2nccs2)cc1 [Example 91, N-(2-methylbenzyl)-4-[(1,3-thiazol-2-ylamino)sulfonyl]benzamide] | 5.91
O=C(NCc1ccc(C(F)(F)F)cc1)c1ccc(S(=O)(=O)Nc2ncns2)cc1Cl [Example 377, 2-Chloro-4-[(1,2,4-thiadiazol-5-ylamino)sulfonyl]-N-[4-(trifluoromethyl)benzyl] benzamide] | 6.07
O=C(NCc1ccc(F)c(F)c1)c1ccc(S(=O)(=O)Nc2ncc(Cl)s2)c(Cl)c1 [Example 371, 3-Chloro-4-{[(5-chloro-1,3-thiazol-2-yl)amino]sulfonyl}-N-(3,4-difluorobenzyl) benzamide] | 5.89
O=C(NCc1ccc(C(F)(F)F)c(Cl)c1)c1ccc(S(=O)(=O)Nc2nccs2)cc1 [Example 396, N-[3-chloro-4-(trifluoromethyl)benzyl]-4-[(1,3-thiazol-2-ylamino)sulfonyl] benzamide] | 7.52
O=C(NCc1ccc(F)cc1Cl)c1ccc(S(=O)(=O)Nc2nccs2)cc1 [Example 95, N-(2-chloro-4-fluorobenzyl)-4-[(1,3-thiazol-2-ylamino)sulfonyl]benzamide] | < 7.00
Cn1ccc(NS(=O)(=O)c2ccc(C(=O)NCc3ccc(C(F)(F)F)cc3)cc2)n1 [Example 2, 4-{[(1-Methyl-1H-pyrazol-3-yl)amino]sulfonyl}-N-[4-(trifluoromethyl)benzyl]benzamide] | < 6.00
O=C(c1ccc(S(=O)(=O)Nc2nccs2)cc1)N1CCOC(COc2ccc(F)cc2Cl)C1 (centres unmarked) [Example 266, 4-({2-[(2-Chloro-4-fluorophenoxy)methyl]morpholin-4-yl}carbonyl)-N-1,3-thiazol-2-ylbenzenesulfonamide] | 5.78
O=C(Nc1ccn(Cc2ccc(Cl)cc2)n1)c1ccc(S(=O)(=O)Nc2ncc(Cl)s2)c(F)c1 [Example 380, N-[1-(4-chlorobenzyl)-1H-pyrazol-3-yl]-4-{[(5-chloro-1,3-thiazol-2-yl)amino]sulfonyl}-3-fluorobenzamide] | 6.77
O=C(NCc1ccc(OC(F)(F)F)cc1)c1ccc(S(=O)(=O)Nc2nccs2)c(F)c1 [Example 301, 3-Fluoro-4-[(1,3-thiazol-2-ylamino)sulfonyl]-N-[4-(trifluoromethoxy)benzyl]benzamide] | 6.74
COc1ccccc1CCNC(=O)c1ccc(S(=O)(=O)Nc2nccs2)cc1 [Example 165, N-[2-(2-methoxyphenyl)ethyl]-4-[(1,3-thiazol-2-ylamino)sulfonyl]benzamide] | 5.38
O=C(NCc1ccc(C(F)(F)F)cc1)c1ccc(S(=O)(=O)Nc2ccn[nH]2)cc1 [Example 24, 4-[(1H-Pyrazol-5-ylamino)sulfonyl]-N-[4-(trifluoromethyl)benzyl]benzamide] | < 5.00
O=C(NCc1ccc(C(F)(F)F)cc1)c1ccc(S(=O)(=O)Nc2cnoc2)cc1 [Example 23, 4-[(Isoxazol-4-ylamino)sulfonyl]-N-[4-(trifluoromethyl)benzyl]benzamide] | 4.63
O=C(NCc1ccc(OC(F)(F)F)c(Cl)c1)c1ccc(S(=O)(=O)Nc2ncns2)cc1Cl [Example 378, 2-Chloro-N-[3-chloro-4-(trifluoromethoxy)benzyl]-4-[(1,2,4-thiadiazol-5-ylamino)sulfonyl] benzamide] | 6.74
O=C(NCc1ccc(C(F)(F)F)cc1)c1ccc(S(=O)(=O)Nc2ncc(Cl)s2)cc1Cl [Example 338, 2-Chloro-4-{[(5-chloro-1,3-thiazol-2-yl)amino]sulfonyl}-N-[4-(trifluoromethyl)benzyl] benzamide] | 5.97
O=C(NCc1cccc(-n2cccn2)c1)c1ccc(S(=O)(=O)Nc2nccs2)cc1 [Example 59, N-[3-(1H-pyrazol-1-yl)benzyl]-4-[(1,3-thiazol-2-ylamino)sulfonyl]benzamide] | 5.77
O=C(NCc1ccc(C(F)(F)F)c(F)c1)c1ccc(S(=O)(=O)Nc2ncc(Cl)s2)cc1Cl [Example 339, 2-Chloro-4-{[(5-chloro-1,3-thiazol-2-yl)amino]sulfonyl}-N-[3-fluoro-4-(trifluoromethyl)benzyl]benzamide] | 6.23
Cc1nnc(NS(=O)(=O)c2ccc(C(=O)NCc3ccc(C(F)(F)F)cc3)cc2)s1 [Example 11, 4-{[(5-Methyl-1,3,4-thiadiazol-2-yl)amino]sulfonyl}-N-[4-(trifluoromethyl)benzyl]benzamide] | 5.59
O=C(NCc1ccc(OC(F)(F)F)cc1)c1ccc(S(=O)(=O)Nc2nccs2)cc1F [Example 330, 2-Fluoro-4-[(1,3-thiazol-2-ylamino)sulfonyl]-N-[4-(trifluoromethoxy)benzyl]benzamide] | 6.89
O=C(NCc1ccc(C(F)(F)F)c(F)c1)c1ccc(S(=O)(=O)Nc2ncc(Cl)s2)cc1 [Example 31, 4-{[(5-Chloro-1,3-thiazol-2-yl)amino]sulfonyl}-N-[3-fluoro-4-(trifluoromethyl)benzyl]benzamide] | 7.15
CC(NC(=O)c1ccc(S(=O)(=O)Nc2ncns2)cc1)c1ccc(C(F)(F)F)cc1 (centres unmarked) [Example 322, 4-[(1,2,4-Thiadiazol-5-ylamino)sulfonyl]-N-{1-[4-(trifluoromethyl)phenyl]ethyl}benzamide] | 6.47
O=C(c1ccc(S(=O)(=O)Nc2nccs2)cc1)N1CCSCC1c1ccccc1Cl (centres unmarked) [Example 46, 4-{[3-(2-Chlorophenyl)thiomorpholin-4-yl]carbonyl}-N-1,3-thiazol-2-ylbenzenesulfonamide] | 5.81
